Test results taken from ChEMBL document CHEMBL3763148, “Synthesis, structure elucidation, DNA-PK and PI3K and anti-cancer activity of 8- and 6-aryl-substituted-1-3-benzoxazines” (Eur J Med Chem, 2016).

What was measured:
[1] = biological target: DNA-dependent protein kinase catalytic subunit (Homo sapiens, UniProt P78527); experiment: Inhibition of human DNA-PK using EPPLSQEAFADLWKK as substrate by HTRF assay
CCRF-CEM = experiment: Cytotoxicity against human CCRF-CEM cells assessed as cell growth inhibition at 10 uM after 48 hrs by SRB assay relative to control; format: functional; details: read-out: GI
[2] = Cytotoxicity against human HL-60(TB) cells assessed as cell growth inhibition at 10 uM after 48 hrs by SRB assay relative to control; format: functional; details: HL-60, 48 h, read-out: GI
K562 = experiment: Cytotoxicity against human K562 cells assessed as cell growth inhibition at 10 uM after 48 hrs by SRB assay relative to control; format: functional; details: K562, 48 h, read-out: GI
[3] = Cytotoxicity against human RPMI8226 cells assessed as cell growth inhibition at 10 uM after 48 hrs by SRB assay relative to control; format: functional; details: RPMI-8226, 48 h, read-out: GI
SR = experiment: Cytotoxicity against human SR cells assessed as cell growth inhibition at 10 uM after 48 hrs by SRB assay relative to control; format: functional; details: read-out: GI
EKVX = experiment: Cytotoxicity against human EKVX cells assessed as cell growth inhibition at 10 uM after 48 hrs by SRB assay relative to control; format: functional; details: read-out: GI
[4] = Cytotoxicity against human HOP62 cells assessed as cell growth inhibition at 10 uM after 48 hrs by SRB assay relative to control; format: functional; details: HOP-62, 48 h, read-out: GI
[5] = Cytotoxicity against human HOP92 cells assessed as cell growth inhibition at 10 uM after 48 hrs by SRB assay relative to control; format: functional; details: HOP-92, 48 h, read-out: GI
NCI-H226 = experiment: Cytotoxicity against human NCI-H226 cells assessed as cell growth inhibition at 10 uM after 48 hrs by SRB assay relative to control; format: functional; details: NCI-H226, 48 h, read-out: GI
NCI-H23 = experiment: Cytotoxicity against human NCI-H23 cells assessed as cell growth inhibition at 10 uM after 48 hrs by SRB assay relative to control; format: functional; details: NCI-H23, 48 h, read-out: GI
[6] = Cytotoxicity against human HCT116 cells assessed as cell growth inhibition at 10 uM after 48 hrs by SRB assay relative to control; format: functional; details: HCT-116, 48 h, read-out: GI
[7] = Cytotoxicity against human HCT15 cells assessed as cell growth inhibition at 10 uM after 48 hrs by SRB assay relative to control; format: functional; details: HCT-15, 48 h, read-out: GI
HT-29 = experiment: Cytotoxicity against human HT-29 cells assessed as cell growth inhibition at 10 uM after 48 hrs by SRB assay relative to control; format: functional; details: HT-29, 48 h, read-out: GI
KM12 = experiment: Cytotoxicity against human KM12 cells assessed as cell growth inhibition at 10 uM after 48 hrs by SRB assay relative to control; format: functional; details: KM12, 48 h, read-out: GI
[8] = Cytotoxicity against human SW620 cells assessed as cell growth inhibition at 10 uM after 48 hrs by SRB assay relative to control; format: functional; details: SW-620, 48 h, read-out: GI
[9] = Cytotoxicity against human SF268 cells assessed as cell growth inhibition at 10 uM after 48 hrs by SRB assay relative to control; format: functional; details: SF-268, 48 h, read-out: GI
[10] = Cytotoxicity against human SF295 cells assessed as cell growth inhibition at 10 uM after 48 hrs by SRB assay relative to control; format: functional; details: SF-295, 48 h, read-out: GI
[11] = Cytotoxicity against human SF539 cells assessed as cell growth inhibition at 10 uM after 48 hrs by SRB assay relative to control; format: functional; details: SF-539, 48 h, read-out: GI
[12] = Cytotoxicity against human SNB75 cells assessed as cell growth inhibition at 10 uM after 48 hrs by SRB assay relative to control; format: functional; details: SNB-75, 48 h, read-out: GI
U-251 = experiment: Cytotoxicity against human U251 cells assessed as cell growth inhibition at 10 uM after 48 hrs by SRB assay relative to control; format: functional; details: U-251, 48 h, read-out: GI
[13] = Cytotoxicity against human LOXIMVI cells assessed as cell growth inhibition at 10 uM after 48 hrs by SRB assay relative to control; format: functional; details: LOX IMVI, read-out: GI
SK-MEL-28 = experiment: Cytotoxicity against human SK-MEL-28 cells assessed as cell growth inhibition at 10 uM after 48 hrs by SRB assay relative to control; format: functional; details: SK-MEL-28, 48 h, read-out: GI
SK-MEL-5 = experiment: Cytotoxicity against human SK-MEL-5 cells assessed as cell growth inhibition at 10 uM after 48 hrs by SRB assay relative to control; format: functional; details: SK-MEL-5, 48 h, read-out: GI
[14] = Cytotoxicity against human UACC257 cells assessed as cell growth inhibition at 10 uM after 48 hrs by SRB assay relative to control; format: functional; details: UACC-257, 48 h, read-out: GI
[15] = Cytotoxicity against human IGROV1 cells assessed as cell growth inhibition at 10 uM after 48 hrs by SRB assay relative to control; format: functional; details: IGROV-1, 48 h, read-out: GI
[16] = Cytotoxicity against human OVCAR4 cells assessed as cell growth inhibition at 10 uM after 48 hrs by SRB assay relative to control; format: functional; details: OVCAR-4, 48 h, read-out: GI
[17] = Cytotoxicity against human OVCAR5 cells assessed as cell growth inhibition at 10 uM after 48 hrs by SRB assay relative to control; format: functional; details: OVCAR-5, 48 h, read-out: GI
[18] = Cytotoxicity against human OVCAR8 cells assessed as cell growth inhibition at 10 uM after 48 hrs by SRB assay relative to control; format: functional; details: OVCAR-8, 48 h, read-out: GI
[19] = Cytotoxicity against human NCI-ADR-RES cells assessed as cell growth inhibition at 10 uM after 48 hrs by SRB assay relative to control; format: functional; details: read-out: GI
[20] = Cytotoxicity against human SKOV3 cells assessed as cell growth inhibition at 10 uM after 48 hrs by SRB assay relative to control; format: functional; details: SK-OV-3, 48 h, read-out: GI
[21] = Cytotoxicity against human RXF393 cells assessed as cell growth inhibition at 10 uM after 48 hrs by SRB assay relative to control; format: functional; details: RXF 393, 48 h, read-out: GI
[22] = Cytotoxicity against human PC3 cells assessed as cell growth inhibition at 10 uM after 48 hrs by SRB assay relative to control; format: functional; details: PC-3, 48 h, read-out: GI
MCF7 = experiment: Cytotoxicity against human MCF7 cells assessed as cell growth inhibition at 10 uM after 48 hrs by SRB assay relative to control; format: functional; details: MCF7, 48 h, read-out: GI
MDA-MB-231 = experiment: Cytotoxicity against human MDA-MB-231 cells assessed as cell growth inhibition at 10 uM after 48 hrs by SRB assay relative to control; format: functional; details: MDA-MB-231, 48 h, read-out: GI

Chain of DNA-dependent protein kinase catalytic subunit (P78527 whole entry): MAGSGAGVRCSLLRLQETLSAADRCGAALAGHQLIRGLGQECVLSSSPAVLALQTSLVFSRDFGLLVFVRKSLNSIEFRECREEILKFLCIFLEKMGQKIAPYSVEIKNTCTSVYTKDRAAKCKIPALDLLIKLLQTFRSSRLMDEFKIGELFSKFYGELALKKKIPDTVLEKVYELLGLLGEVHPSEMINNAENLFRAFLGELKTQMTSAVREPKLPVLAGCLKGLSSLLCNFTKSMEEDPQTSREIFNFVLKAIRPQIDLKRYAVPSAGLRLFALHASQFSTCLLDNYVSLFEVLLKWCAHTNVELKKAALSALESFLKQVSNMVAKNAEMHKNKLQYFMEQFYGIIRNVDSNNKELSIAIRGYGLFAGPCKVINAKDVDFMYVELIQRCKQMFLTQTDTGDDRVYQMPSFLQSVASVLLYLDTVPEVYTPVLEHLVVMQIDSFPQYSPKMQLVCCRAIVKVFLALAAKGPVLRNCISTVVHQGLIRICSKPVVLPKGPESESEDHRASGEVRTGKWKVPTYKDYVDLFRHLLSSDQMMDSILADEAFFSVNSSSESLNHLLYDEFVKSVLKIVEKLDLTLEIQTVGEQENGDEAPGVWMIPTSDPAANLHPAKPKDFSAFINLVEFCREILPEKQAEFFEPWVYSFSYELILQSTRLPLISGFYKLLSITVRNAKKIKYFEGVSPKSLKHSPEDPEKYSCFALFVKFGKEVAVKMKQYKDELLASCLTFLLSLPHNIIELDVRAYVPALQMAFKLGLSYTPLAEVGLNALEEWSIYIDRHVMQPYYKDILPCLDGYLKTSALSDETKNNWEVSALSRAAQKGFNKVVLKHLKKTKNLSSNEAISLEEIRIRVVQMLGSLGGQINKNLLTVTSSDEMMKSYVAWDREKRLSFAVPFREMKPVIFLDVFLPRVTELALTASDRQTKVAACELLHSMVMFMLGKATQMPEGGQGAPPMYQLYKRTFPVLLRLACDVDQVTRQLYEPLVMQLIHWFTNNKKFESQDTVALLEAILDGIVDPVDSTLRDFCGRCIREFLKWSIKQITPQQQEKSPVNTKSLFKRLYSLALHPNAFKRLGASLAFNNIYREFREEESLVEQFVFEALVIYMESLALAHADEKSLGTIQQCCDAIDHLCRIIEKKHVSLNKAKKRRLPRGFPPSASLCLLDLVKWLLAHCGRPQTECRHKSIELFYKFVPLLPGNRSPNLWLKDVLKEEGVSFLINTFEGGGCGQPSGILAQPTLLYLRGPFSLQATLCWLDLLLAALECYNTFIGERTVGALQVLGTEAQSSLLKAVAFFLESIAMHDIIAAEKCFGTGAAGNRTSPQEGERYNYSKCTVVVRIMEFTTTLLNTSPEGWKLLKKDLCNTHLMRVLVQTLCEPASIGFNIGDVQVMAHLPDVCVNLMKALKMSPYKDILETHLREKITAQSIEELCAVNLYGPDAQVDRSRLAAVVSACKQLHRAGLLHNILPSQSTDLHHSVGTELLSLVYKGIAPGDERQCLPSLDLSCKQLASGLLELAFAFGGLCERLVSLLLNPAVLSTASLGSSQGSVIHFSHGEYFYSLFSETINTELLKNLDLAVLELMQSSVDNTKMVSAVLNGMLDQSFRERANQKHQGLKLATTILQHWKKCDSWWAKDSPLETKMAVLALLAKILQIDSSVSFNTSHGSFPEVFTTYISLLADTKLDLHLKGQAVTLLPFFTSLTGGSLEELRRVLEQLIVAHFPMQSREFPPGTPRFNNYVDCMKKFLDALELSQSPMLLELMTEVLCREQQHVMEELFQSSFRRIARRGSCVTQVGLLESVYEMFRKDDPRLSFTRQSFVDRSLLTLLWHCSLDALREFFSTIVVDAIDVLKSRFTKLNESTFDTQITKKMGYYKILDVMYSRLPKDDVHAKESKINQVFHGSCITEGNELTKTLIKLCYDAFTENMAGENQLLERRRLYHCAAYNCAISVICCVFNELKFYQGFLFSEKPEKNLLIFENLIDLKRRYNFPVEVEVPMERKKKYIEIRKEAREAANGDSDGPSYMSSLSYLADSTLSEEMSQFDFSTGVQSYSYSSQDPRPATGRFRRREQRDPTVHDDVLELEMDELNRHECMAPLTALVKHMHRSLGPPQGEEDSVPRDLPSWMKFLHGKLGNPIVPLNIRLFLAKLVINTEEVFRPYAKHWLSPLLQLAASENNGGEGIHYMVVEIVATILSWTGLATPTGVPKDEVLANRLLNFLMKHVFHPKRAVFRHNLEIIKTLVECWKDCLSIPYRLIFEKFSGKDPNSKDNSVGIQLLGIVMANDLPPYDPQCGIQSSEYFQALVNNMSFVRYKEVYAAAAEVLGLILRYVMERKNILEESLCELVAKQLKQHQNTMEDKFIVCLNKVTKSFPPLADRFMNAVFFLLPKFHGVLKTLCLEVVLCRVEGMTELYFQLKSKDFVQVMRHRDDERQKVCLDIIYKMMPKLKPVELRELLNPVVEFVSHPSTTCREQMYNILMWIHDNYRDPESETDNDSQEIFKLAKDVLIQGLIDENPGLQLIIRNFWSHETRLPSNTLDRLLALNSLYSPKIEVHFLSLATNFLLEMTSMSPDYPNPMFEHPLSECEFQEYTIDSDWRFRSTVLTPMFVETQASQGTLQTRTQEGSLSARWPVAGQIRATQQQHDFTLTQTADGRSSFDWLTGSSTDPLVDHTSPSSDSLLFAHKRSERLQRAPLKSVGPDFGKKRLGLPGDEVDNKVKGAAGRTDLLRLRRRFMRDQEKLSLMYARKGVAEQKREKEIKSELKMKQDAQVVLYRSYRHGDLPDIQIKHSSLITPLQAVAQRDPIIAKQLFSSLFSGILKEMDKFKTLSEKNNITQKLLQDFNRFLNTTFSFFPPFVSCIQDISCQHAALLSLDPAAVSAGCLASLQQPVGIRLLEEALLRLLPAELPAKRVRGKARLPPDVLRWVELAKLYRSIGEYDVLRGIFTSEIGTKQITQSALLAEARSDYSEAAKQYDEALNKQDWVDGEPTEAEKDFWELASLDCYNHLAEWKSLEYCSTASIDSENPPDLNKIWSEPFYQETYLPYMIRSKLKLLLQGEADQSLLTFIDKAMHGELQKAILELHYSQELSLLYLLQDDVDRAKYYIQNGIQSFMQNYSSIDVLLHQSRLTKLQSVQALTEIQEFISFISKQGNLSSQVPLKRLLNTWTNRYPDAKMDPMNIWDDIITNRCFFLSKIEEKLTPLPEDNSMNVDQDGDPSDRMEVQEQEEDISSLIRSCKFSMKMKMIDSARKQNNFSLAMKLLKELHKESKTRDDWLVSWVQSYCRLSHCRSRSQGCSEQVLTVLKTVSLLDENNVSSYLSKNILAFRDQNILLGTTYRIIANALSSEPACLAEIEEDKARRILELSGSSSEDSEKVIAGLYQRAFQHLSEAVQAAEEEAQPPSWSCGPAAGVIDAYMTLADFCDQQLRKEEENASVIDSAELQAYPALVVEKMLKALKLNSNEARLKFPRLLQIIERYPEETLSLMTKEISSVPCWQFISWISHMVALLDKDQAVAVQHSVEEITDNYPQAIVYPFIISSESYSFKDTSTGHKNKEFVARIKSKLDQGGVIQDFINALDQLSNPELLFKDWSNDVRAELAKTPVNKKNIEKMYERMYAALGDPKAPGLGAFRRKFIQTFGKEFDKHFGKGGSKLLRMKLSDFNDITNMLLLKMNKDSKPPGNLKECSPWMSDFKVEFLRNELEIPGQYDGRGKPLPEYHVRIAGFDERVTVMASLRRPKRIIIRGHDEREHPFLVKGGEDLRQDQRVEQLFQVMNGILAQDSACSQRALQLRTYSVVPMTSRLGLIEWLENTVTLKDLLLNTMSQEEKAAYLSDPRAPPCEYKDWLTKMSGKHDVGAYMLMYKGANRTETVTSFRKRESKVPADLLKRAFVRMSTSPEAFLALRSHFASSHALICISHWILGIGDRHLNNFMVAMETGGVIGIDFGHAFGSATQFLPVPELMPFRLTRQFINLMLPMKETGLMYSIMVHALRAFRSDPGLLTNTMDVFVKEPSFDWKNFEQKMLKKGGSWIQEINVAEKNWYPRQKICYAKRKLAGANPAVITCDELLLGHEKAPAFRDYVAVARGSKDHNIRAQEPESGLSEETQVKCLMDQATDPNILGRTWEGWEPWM

SMILES	IC50 [1]	inhibition of growth at 10 µM (CCRF-CEM)	inhibition of growth at 10 µM [2]	inhibition of growth at 10 µM (K562)	inhibition of growth at 10 µM [3]	inhibition of growth at 10 µM (SR)	inhibition of growth at 10 µM (EKVX)	inhibition of growth at 10 µM [4]	inhibition of growth at 10 µM [5]	inhibition of growth at 10 µM (NCI-H226)	inhibition of growth at 10 µM (NCI-H23)	inhibition of growth at 10 µM [6]	inhibition of growth at 10 µM [7]	inhibition of growth at 10 µM (HT-29)	inhibition of growth at 10 µM (KM12)	inhibition of growth at 10 µM [8]	inhibition of growth at 10 µM [9]	inhibition of growth at 10 µM [10]	inhibition of growth at 10 µM [11]	inhibition of growth at 10 µM [12]	also measured
O=c1nc(N2CCOCC2)oc2c(-c3ccsc3)cccc12	9.8 µM	8.93%	4.04%	-1.04%	3.35%	21.9%	16.3%	15.3%	40.7%	21.9%	15.4%	2.6%	6.07%	12.7%	2.74%	2.66%	13.1%	17.1%	-6.9%	38.8%	inhibition of growth at 10 µM (U-251): 8.75%; inhibition of growth at 10 µM [13]: 10.6%; inhibition of growth at 10 µM (SK-MEL-28): 8.4%; inhibition of growth at 10 µM (SK-MEL-5): 13.4%; inhibition of growth at 10 µM [14]: 1.24%; inhibition of growth at 10 µM [15]: 7.97%; inhibition of growth at 10 µM [16]: 3.41%; inhibition of growth at 10 µM [17]: 10.8%; inhibition of growth at 10 µM [18]: 3.77%; inhibition of growth at 10 µM [19]: 13.3%; inhibition of growth at 10 µM [20]: -0.06%; inhibition of growth at 10 µM [21]: 14.4%; inhibition of growth at 10 µM [22]: 24.6%; inhibition of growth at 10 µM (MCF7): 22.3%; inhibition of growth at 10 µM (MDA-MB-231): 6.78%
O=c1nc(N2CCOCC2)oc2c(-c3cccc4c3sc3ccccc34)cccc12	0.034 µM	19.9%	11.5%	20.6%	19.7%	50.9%	28.3%	26.8%	53.8%	38.6%	13.4%	18.7%	13.4%	16.9%	21.6%	5.95%	15.2%	11%	15.1%	53%	inhibition of growth at 10 µM (U-251): 17.8%; inhibition of growth at 10 µM [13]: 21.3%; inhibition of growth at 10 µM (SK-MEL-28): -2.77%; inhibition of growth at 10 µM (SK-MEL-5): 17.2%; inhibition of growth at 10 µM [14]: 5.04%; inhibition of growth at 10 µM [15]: 15%; inhibition of growth at 10 µM [16]: 7.25%; inhibition of growth at 10 µM [17]: 18.8%; inhibition of growth at 10 µM [18]: 20.2%; inhibition of growth at 10 µM [19]: 19.2%; inhibition of growth at 10 µM [20]: -11.4%; inhibition of growth at 10 µM [21]: 38.4%; inhibition of growth at 10 µM [22]: 40.5%; inhibition of growth at 10 µM (MCF7): 30.5%; inhibition of growth at 10 µM (MDA-MB-231): 29.5%
COc1ccc(-c2cccc3c(=O)nc(N4CCOCC4)oc23)cc1	9.94 µM	2.57%	7.35%	7.02%	-0.31%	26.1%	11.1%	5.81%	34.8%	15.1%	14.3%	7.05%	3.13%	10.8%	2.91%	0.87%	6.91%	2.78%	-2.27%	38.2%	inhibition of growth at 10 µM (U-251): 0.83%; inhibition of growth at 10 µM [13]: 13%; inhibition of growth at 10 µM (SK-MEL-28): 2.38%; inhibition of growth at 10 µM (SK-MEL-5): 9.19%; inhibition of growth at 10 µM [14]: 4.28%; inhibition of growth at 10 µM [15]: 0.87%; inhibition of growth at 10 µM [16]: 2.85%; inhibition of growth at 10 µM [17]: 4.76%; inhibition of growth at 10 µM [18]: 4.78%; inhibition of growth at 10 µM [19]: 9.12%; inhibition of growth at 10 µM [20]: -6.51%; inhibition of growth at 10 µM [21]: 7.94%; inhibition of growth at 10 µM [22]: 14.9%; inhibition of growth at 10 µM (MCF7): 17.4%; inhibition of growth at 10 µM (MDA-MB-231): 3.13%
